Measured values reported in patent publication US20160101146A1, “TREATMENT FOR INFECTION WITH HEPATITIS B VIRUS ALONE OR IN COMBINATION WITH HEPATITIS DELTA VIRUS AND ASSOCIATED LIVER DISEASES” (NOVARTIS AG, priority 2011, published 2016).

How the values were obtained:
[1] = test system: Hepatitis B virus replication; assay: Alisporivir treatment of HepG2215 cells silenced for CypA, C or D by siRNA; HBV-DNA and HBsAg levels; type: cell-based, Hepatitis B virus (human hepatoma cell line); details: greater effects in CypC or CypD silenced cells than CypA silenced cells (p<0.001)
Description: To assess the role of cyclophilin A in HBV replication, HepG2215 cells were transfected with siRNA for cyclophilin A and incubated with medium only or with the addition of NIM811 or DEB025. Similarly, the role of Cyclophilin B, C and D in HBV and HDV replication will be evaluated by siRNA specific for CypB, C and D.
Stably transfected (HepG2215) and transiently transfected (HUH-7) cells, producing full HBV virions and HBsAg particles, were treated with a range of Alisporivir concentrations (0.25, 1.0 5.0 or 20 micrograms/ml) alone, telbivudine alone, or combinations of Alisporivir and telbivudine. To determine the involvement of individual cyclophilins, HepG2215 cells were transfected with siRNA-specific for cyclophilin (Cyp) A, C or D and additionally treated with Alisporivir. […] The kinetics of antiviral activity was assessed by quantitation of intracellular and secreted HBV-DNA (real-time qPCR) and HBsAg levels (ELISA).
HepG2215 cells were seeded with the siRNAs (Dharmacon Inc., Lafayette, Colo.) at 50% density and incubated for 48 h. […] Total DNA was extracted from the samples and HBV DNA was quantitated by real time PCR, as above. […] The RNA was reverse transcribed with Quantitect Reverse transcription kit (Qiagen) and cDNA quantitated with SYBR Green Quantitect kit using Quantitect primers (Qiagen, Sussex, UK).

[2] = test system: Hepatitis B virus replication; assay: Secreted HBV DNA quantitation in cell culture supernatants by real-time PCR; type: cell-based, Hepatitis B virus (human hepatoma cell lines)
Description: (§1) HepG2215 cell line, derived from HepG2 cells, was stably transfected with HBV DNA and supported full HBV replication with production of infectious virions and HBsAg. HepG2215 cells were cultured in 12-well plates, as described previously (7, 8), for 7 days prior to adding the cyclophilin inhibitors.
(§2) The cells were treated with 0.25, 1.0 or 5.0 micrograms/mL of NIM811 or DEB025; cells and supernatants were harvested separately at baseline, 6, 24, 48 and 72 hours after the addition of NIM811 or DEB025, respectively.
(§3) HuH-7 cells were transfected with a plasmid containing a pBlueScript KS(+) vector with a 1.5 HBV DNA genomes of subtype adw2 was used. Subconfluent HuH-7 cells were transfected with 5 μg of plasmid DNA per 60-mm-diameter dish using 10 μl of Superfect reagent (Qiagen, Crawley, UK). The supernatants were replaced 18 h posttransfection with medium supplemented with 10% FCS, and the cells were cultured for 3 days, as described (7).
(§4) Stably transfected (HepG2215) and transiently transfected (HUH-7) cells, producing full HBV virions and HBsAg particles, were treated with a range of Alisporivir concentrations (0.25, 1.0 5.0 or 20 micrograms/ml) alone, telbivudine alone, or combinations of Alisporivir and telbivudine. To determine the involvement of individual cyclophilins, HepG2215 cells were transfected with siRNA-specific for cyclophilin (Cyp) A, C or D and additionally treated with Alisporivir. Cytoplasmic extracts and supernatants were harvested at baseline; 24, 48 and 72 hours post-treatment. The kinetics of antiviral activity was assessed by quantitation of intracellular and secreted HBV-DNA (real-time qPCR) and HBsAg levels (ELISA).
(§5) HBV replication was assessed by quantitation of both viral nucleocapsid-associated HBV DNA (cytoplasmic) and the HBV DNA levels in cell culture supernatants, as described previously (8,9). Nucleocapsid HBV DNA was extracted and quantitated by TaqMan real-time PCR (ABI Prism 7700). Intracellular HBV DNA was normalized with b-actin as a house-keeping gene. Secreted HBV DNA was extracted with QIAmp DNA minikit (Qiagen, Sussex, UK) and also quantitated by TaqMan. The sensitivity of HBV DNA quantitation was verified in each run with serial dilutions of HBV DNA plasmid, as well as the EuroHep HBV DNA standard, as described (9,10).

[3] = test system: Hepatitis B virus replication; assay: Intracellular (cytoplasmic, nucleocapsid-associated) HBV DNA quantitation by real-time PCR in HBV-transfected hepatoma cells; type: cell-based, Hepatitis B virus (human hepatoma cell lines); details: for reduction of cellular HBV DNA: FIG. 6
Description: as §1, §2, §3, §4, §5

Hepatitis B virus = details: at one year, cited from earlier work; for rate of undetectable HBV DNA: HBeAg-negative patients with CHB; for virological treatment response rate (undetectable serum HBV DNA): HBeAg-positive patients

| SMILES | HBV-DNA levels in Cyp-silenced cells [1] | HBsAg levels in Cyp-silenced cells [1] | reduction of secreted HBV-DNA ([2]; HepG2215 and HUH-7 cells, dose-dependent (0.25-20 micrograms/ml), compared with untreated controls, p<0.001) | effect in reducing HBV DNA levels in cell culture supernatants compared with NIM811 ([2]; HepG2215 cells, 5.0 micrograms/mL, FIG. 2) | reduction of secreted HBV DNA ([2]; HepG2215 cells, FIG. 5) | reduction of secreted HBV DNA ([2]; transiently transfected Huh7 or stably transfected HepG2215 cells, FIG. 3) | reduction of intracellular HBV-DNA ([3]; HepG2215 and HUH-7 cells, dose-dependent (0.25-20 micrograms/ml), compared with untreated controls, p=0.004) | reduction of intracellular HBV DNA compared with NIM811 ([3]; HepG2215 cells, 5 micrograms/mL, 72 h) | reduction of intracellular HBV DNA levels ([3]; HepG2215 cells, 5 micrograms/mL, 72 hours, FIG. 1) | reduction of cellular HBV DNA ([3]; HepG2215 cells) | reduction of cytoplasmic HBV DNA ([3]; Huh7 and HepG2215 cells, FIG. 4) | rate of undetectable HBV DNA (Hepatitis B virus) | virological treatment response rate (undetectable serum HBV DNA) (Hepatitis B virus) |
| --- | --- | --- | --- | --- | --- | --- | --- | --- | --- | --- | --- | --- | --- |
| C/C=C/C[C@@H](C)[C@@H](O)[C@H]1C(=O)N[C@@H](CC)C(=O)N(C)[C@H](C)C(=O)N(CC)[C@@H](C(C)C)C(=O)N[C@@H](C(C)C)C(=O)N(C)[C@@H](CC(C)C)C(=O)N[C@@H](C)C(=O)N[C@H](C)C(=O)N(C)[C@@H](CC(C)C)C(=O)N(C)[C@@H](CC(C)C)C(=O)N(C)[C@@H](C(C)C)C(=O)N1C [Alisporivir] | further reduced | further reduced | 63% | greater effect | reductions | dose-dependent reduction | 70% | greater than the reduction observed with NIM811 | 10 fold | reductions | dose dependent reductions |  |  |
| C=C1[C@H](CO)[C@@H](O)C[C@@H]1n1cnc2c(=O)[nH]c(N)nc21 [entecavir] |  |  |  |  |  |  |  |  |  |  |  | 90% | 67% |
| Cc1cn([C@@H]2C[C@@H](O)[C@H](CO)O2)c(=O)[nH]c1=O [telbivudine, reference compound] |  |  |  |  | reductions |  |  |  |  | reductions |  | 88% | 60% |
| C[C@H](Cn1cnc2c(N)ncnc21)OCP(=O)(O)O [tenofovir] |  |  |  |  |  |  |  |  |  |  |  | 91% | 74% |
